Data taken from patent publication US20080009418A1, “Selective Inhibitors” (Alchemia LTD., priority 2004, published 2008).

Columns and labels:
[1] = molecular target: T1, Human melanin-concentrating hormone (MCH1) (Homo sapiens, UniProt Q99705); assay: Radioligand binding, human melanin-concentrating hormone MCH1 membranes, FlashPlate, [125I]-S36057; details: compound at 10 μM; for A6: inhibition of radioligand binding, human melanin-concentrating hormone (MCH1): [125I]-S36057
T1 construct: purchased Perkin Elmer Biosignal
Procedure, shortened: (§1)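 Cloned human receptor membranes were coated onto FlashPlate wells and incubated with radioligand and compound (added from a 0.5 mM DMSO daughter plate) for 1 hour at room temperature in the dark. Scintillation counting gave percent inhibition, with DMSO defining total and reference ligand defining non-specific binding.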

Human κ-Opioid (KOP) = molecular target: T2, Human κ-Opioid (KOP) (Homo sapiens, UniProt P41145); assay: Radioligand binding, human κ-opioid (KOP) membranes, filtration, [3H]-Diprenorphine; details: compound at 10 μM
T2 construct: purchased Perkin Elmer Biosignal
Procedure, shortened: (§2)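 Filtration binding on cloned human receptor membranes (1 Unit/well), [125I]-Substance P for NK1 and [3H]-Diprenorphine for KOP, 1 h at room temperature. Filters PEI-presoaked, washed with cold 50 mM Tris-HCl pH 7.4, counted by scintillation; percent inhibition calculated, reference ligand defining non-specific binding.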

Human opioid (ORL1) = molecular target: T3, Human opioid (ORL1) (Homo sapiens, UniProt P41146); assay: Radioligand binding, human opioid ORL1 membranes, FlashPlate, [125I]-Nociceptin; details: compound at 10 μM
T3 construct: purchased Perkin Elmer Biosignal
Procedure, shortened: as §1

Human μ-opioid (MOP) = molecular target: T4, Human μ-opioid (MOP) (Homo sapiens, UniProt P35372); assay: Radioligand binding, human μ-opioid (MOP) membranes, FlashPlate, [3H]-Naloxone; details: compound at 10 μM
T4 construct: purchased Perkin Elmer Biosignal
Procedure, shortened: as §1

Mouse urotensin (mUR2) = molecular target: T5, Mouse urotensin (mUR2) (Mus musculus, UniProt Q8VIH9); assay: Radioligand binding, mouse urotensin mUR2 membranes, FlashPlate, [125I]-Urotensin II; details: compound at 10 μM
T5 construct: purchased Perkin Elmer Biosignal
T5 sequence (Q8VIH9 1-385): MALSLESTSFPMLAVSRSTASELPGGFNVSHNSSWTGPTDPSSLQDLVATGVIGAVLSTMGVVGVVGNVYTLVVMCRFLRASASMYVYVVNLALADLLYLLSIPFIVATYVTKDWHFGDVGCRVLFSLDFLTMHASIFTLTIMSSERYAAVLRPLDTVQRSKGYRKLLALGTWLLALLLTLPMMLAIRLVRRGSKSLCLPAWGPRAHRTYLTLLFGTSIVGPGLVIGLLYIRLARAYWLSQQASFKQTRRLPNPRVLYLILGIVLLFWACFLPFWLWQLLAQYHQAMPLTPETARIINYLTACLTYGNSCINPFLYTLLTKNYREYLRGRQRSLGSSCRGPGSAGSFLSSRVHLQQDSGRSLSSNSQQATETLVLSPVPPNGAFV
Procedure, shortened: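 Cloned mouse urotensin (mUR2) receptor membranes from Perkin Elmer Biosignal were immobilized in FlashPlate microplates using a proprietary coating. Each well got 19.5 μl buffer, then 0.5 μl of DMSO, reference ligand, or compound. Adding 5 μl of [125I]-Urotensin II, diluted to 5× final concentration in binding buffer, started binding. Plates were sealed with TopSeal-A and incubated 1 hour at room temperature in the dark. Wells were counted for 30 seconds each on a TopCount after a 60-second delay, and percentage inhibition was calculated.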

Human Melanocortin (MC4) = molecular target: T6, Human Melanocortin (MC4) (Homo sapiens, UniProt P32245); assay: Radioligand binding, human melanocortin MC4 membranes, FlashPlate, [125I]-NDP-αMSH; details: compound at 10 μM
T6 construct: purchased Perkin Elmer Biosignal
Procedure, shortened: as §1

[2] = molecular target: T7, Human neuropeptide Y (NPY-Y1) (Homo sapiens, UniProt P25929); assay: Radioligand binding, human neuropeptide Y NPY-Y1 membranes, FlashPlate, [125I]-PYY; details: compound at 10 μM
T7 construct: purchased Perkin Elmer Biosignal
T7 sequence (P25929 1-384): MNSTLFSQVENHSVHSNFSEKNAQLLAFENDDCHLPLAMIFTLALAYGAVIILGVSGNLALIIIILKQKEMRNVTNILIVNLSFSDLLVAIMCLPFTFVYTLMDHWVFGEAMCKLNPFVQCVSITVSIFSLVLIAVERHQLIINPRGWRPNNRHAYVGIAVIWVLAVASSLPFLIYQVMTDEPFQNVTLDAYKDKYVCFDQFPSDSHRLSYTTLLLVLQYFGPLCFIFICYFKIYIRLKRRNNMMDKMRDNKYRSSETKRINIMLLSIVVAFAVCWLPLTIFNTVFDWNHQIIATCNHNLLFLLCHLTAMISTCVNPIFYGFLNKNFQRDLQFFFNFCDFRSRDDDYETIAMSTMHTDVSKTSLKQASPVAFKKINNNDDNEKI
Procedure, shortened: as §1

Human Melanocortin (MC3) = molecular target: T8, Human Melanocortin (MC3) (Homo sapiens, UniProt P41968); assay: Radioligand binding, human melanocortin MC3 membranes, FlashPlate, [125I]-NDP-αMSH; details: compound at 10 μM
T8 construct: purchased Perkin Elmer Biosignal
Procedure, shortened: as §1

Human neurokinin (NK1) = molecular target: T9, Human neurokinin (NK1) (Homo sapiens, UniProt P25103); assay: Radioligand binding, human neurokinin NK1 membranes, filtration, [125I]-Substance P; details: compound at 10 μM
T9 construct: purchased Perkin Elmer Biosignal
Procedure, shortened: as §2

Human δ-opioid (DOP) = molecular target: T10, Human δ-opioid (DOP) (Homo sapiens, UniProt P41143); assay: Radioligand binding, human δ-opioid (DOP) membranes, FlashPlate, [3H]-Bremazocine; details: compound at 10 μM
T10 construct: purchased Perkin Elmer Biosignal
Procedure, shortened: as §1

Human melanocortin (MC5) = molecular target: T11, Human melanocortin (MC5) (Homo sapiens, UniProt P33032); assay: Radioligand binding, human melanocortin MC5 membranes, FlashPlate, [125I]-NDP-αMSH; details: compound at 10 μM
T11 construct: purchased Perkin Elmer Biosignal
Procedure, shortened: as §1

T1 sequence (Q99705 whole entry): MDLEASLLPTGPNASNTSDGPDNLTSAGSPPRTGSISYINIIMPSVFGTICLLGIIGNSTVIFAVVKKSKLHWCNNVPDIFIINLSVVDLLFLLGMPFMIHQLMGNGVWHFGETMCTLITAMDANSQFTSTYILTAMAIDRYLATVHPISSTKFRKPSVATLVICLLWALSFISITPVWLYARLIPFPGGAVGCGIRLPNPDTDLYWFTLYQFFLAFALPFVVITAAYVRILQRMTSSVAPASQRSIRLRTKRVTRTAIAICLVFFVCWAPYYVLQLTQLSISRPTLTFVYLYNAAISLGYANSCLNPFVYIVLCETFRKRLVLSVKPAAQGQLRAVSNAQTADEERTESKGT
T2 sequence (P41145 whole entry): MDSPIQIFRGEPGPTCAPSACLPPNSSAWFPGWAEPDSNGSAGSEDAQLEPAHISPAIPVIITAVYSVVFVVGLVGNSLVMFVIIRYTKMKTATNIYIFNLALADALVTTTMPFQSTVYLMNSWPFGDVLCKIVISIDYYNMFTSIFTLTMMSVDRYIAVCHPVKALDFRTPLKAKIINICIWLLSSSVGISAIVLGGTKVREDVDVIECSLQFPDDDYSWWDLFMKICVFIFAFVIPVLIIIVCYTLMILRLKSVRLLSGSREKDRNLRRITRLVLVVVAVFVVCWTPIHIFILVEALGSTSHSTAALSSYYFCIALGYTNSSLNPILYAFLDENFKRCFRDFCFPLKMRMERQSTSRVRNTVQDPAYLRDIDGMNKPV
T10 sequence (P41143 whole entry): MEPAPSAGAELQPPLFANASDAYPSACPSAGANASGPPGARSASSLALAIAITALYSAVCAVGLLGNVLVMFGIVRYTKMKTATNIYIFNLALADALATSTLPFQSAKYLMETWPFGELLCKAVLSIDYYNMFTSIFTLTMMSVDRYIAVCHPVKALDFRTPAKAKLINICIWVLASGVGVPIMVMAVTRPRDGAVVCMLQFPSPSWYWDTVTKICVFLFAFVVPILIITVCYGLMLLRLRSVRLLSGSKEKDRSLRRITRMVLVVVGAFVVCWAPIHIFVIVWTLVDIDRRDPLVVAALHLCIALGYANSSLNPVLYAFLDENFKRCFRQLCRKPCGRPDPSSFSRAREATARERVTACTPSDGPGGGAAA
T3 sequence (P41146 whole entry): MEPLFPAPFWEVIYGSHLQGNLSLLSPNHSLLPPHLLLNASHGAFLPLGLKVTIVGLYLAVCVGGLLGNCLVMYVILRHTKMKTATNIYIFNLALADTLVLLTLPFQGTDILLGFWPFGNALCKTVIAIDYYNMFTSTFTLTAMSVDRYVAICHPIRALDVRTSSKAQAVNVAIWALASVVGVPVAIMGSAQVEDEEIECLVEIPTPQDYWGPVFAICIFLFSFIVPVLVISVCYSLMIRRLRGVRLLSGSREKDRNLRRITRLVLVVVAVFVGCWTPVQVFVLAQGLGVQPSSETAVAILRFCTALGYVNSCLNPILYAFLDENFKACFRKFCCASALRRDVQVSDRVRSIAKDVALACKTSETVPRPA
T11 sequence (P33032 whole entry): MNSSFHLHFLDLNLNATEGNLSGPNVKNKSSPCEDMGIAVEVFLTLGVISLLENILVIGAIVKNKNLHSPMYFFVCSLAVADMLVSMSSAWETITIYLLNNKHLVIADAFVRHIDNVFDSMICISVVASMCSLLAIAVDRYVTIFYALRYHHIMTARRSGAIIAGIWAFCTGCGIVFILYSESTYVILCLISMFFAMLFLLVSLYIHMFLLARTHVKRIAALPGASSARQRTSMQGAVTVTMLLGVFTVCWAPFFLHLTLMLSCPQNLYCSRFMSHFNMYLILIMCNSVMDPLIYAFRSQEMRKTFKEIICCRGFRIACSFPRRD
T9 sequence (P25103 whole entry): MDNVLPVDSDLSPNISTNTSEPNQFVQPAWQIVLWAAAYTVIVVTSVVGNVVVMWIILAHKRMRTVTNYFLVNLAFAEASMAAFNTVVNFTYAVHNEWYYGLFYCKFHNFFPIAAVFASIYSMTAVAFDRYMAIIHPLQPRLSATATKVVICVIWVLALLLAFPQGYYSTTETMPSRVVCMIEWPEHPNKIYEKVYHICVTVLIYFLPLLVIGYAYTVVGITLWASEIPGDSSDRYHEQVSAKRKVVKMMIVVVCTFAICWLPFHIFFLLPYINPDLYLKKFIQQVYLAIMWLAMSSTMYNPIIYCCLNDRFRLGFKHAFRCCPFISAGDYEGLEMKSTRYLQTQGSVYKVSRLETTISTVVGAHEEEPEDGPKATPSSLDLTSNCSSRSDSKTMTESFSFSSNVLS
T6 sequence (P32245 whole entry): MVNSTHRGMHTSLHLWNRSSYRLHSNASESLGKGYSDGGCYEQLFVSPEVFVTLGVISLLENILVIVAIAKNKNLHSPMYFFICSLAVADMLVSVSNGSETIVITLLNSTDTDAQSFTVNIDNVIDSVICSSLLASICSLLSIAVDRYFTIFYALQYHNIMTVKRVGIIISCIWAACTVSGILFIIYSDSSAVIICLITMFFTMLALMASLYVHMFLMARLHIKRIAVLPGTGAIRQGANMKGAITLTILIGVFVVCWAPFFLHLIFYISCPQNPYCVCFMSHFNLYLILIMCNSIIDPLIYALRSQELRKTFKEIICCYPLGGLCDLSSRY
T4 sequence (P35372 whole entry): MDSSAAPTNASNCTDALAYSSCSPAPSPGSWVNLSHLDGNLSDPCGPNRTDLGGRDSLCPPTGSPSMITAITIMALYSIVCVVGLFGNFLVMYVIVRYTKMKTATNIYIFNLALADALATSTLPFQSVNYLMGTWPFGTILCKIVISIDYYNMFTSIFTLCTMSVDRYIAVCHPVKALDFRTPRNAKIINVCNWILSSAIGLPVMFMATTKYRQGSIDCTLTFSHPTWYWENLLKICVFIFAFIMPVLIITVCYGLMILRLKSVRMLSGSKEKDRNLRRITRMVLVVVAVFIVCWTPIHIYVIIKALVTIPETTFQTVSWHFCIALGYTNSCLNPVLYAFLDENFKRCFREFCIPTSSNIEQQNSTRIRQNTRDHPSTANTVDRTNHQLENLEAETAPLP
T8 sequence (P41968 whole entry): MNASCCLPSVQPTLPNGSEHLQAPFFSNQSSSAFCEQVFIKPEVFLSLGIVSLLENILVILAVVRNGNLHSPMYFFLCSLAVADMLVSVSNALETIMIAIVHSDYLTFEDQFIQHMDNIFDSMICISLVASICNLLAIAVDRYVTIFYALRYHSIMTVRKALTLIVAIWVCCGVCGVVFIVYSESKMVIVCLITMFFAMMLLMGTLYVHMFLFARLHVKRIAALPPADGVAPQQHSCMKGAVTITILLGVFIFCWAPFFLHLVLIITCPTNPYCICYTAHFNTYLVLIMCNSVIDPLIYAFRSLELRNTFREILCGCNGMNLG

Structure (SMILES) | A6: inhibition of radioligand binding, human melanin-concentrating hormone (MCH1) [1] | A2: inhibition of radioligand binding, human κ-opioid (KOP) (Human κ-Opioid (KOP); [3H]-Diprenorphine) | A10: inhibition of radioligand binding, human opioid (ORL1) (Human opioid (ORL1); [125I]-Nociceptin) | A11: inhibition of radioligand binding, mouse urotensin (mUR2) (Mouse urotensin (mUR2); [125I]-Urotensin II) | A4: inhibition of radioligand binding, human melanocortin (MC4) (Human Melanocortin (MC4); [125I]-NDP-αMSH) | A9: inhibition of radioligand binding, human neuropeptide Y (NPY-Y1) ([2]; [125I]-PYY) | A3: inhibition of radioligand binding, human melanocortin (MC3) (Human Melanocortin (MC3); [125I]-NDP-αMSH) | A8: inhibition of radioligand binding, human neurokinin (NK1) (Human neurokinin (NK1); [125I]-Substance P) | A5: inhibition of radioligand binding, human melanocortin (MC5) (Human melanocortin (MC5); [125I]-NDP-αMSH) | A7: inhibition of radioligand binding, human μ-opioid (MOP) (Human μ-opioid (MOP); [3H]-Naloxone) | A1: inhibition of radioligand binding, human δ-opioid (DOP) (Human δ-opioid (DOP); [3H]-Bremazocine) | also measured
N=C(N)NCCC(=O)N[C@H]1C(OCc2ccc(Cl)cc2)O[C@H](COCc2ccccc2)[C@@H](O)[C@@H]1OCc1ccc(-c2ccccc2)cc1 (stereo partly shown) [compound 536] | + (“+” indicates greater than 50% inhibition at 10 μM) | + (“+” indicates greater than 50% inhibition at 10 μM) | − (“−” indicates less than 50% inhibition at 10 μM) | − (“−” indicates less than 50% inhibition at 10 μM) | + (“+” indicates greater than 50% inhibition at 10 μM) | − (“−” indicates less than 50% inhibition at 10 μM) | + (“+” indicates greater than 50% inhibition at 10 μM) | + (“+” indicates greater than 50% inhibition at 10 μM) | + (“+” indicates greater than 50% inhibition at 10 μM) | – | – | A7: inhibition of radioligand binding, human μ-opioid (MOP) (Human μ-opioid (MOP); [3H]-Naloxone, 10 µM): − (“−” indicates less than 50% inhibition at 10 μM); A1: inhibition of radioligand binding, human δ-opioid (DOP) (Human δ-opioid (DOP); [3H]-Bremazocine, 10 µM): − (“−” indicates less than 50% inhibition at 10 μM)
NCCC(=O)N[C@H]1C(OCc2ccc3ccccc3c2)O[C@H](COCc2ccc(Cl)cc2)[C@@H](O)[C@@H]1OCc1ccc2ccccc2c1 (stereo partly shown) [compound 446] | – | – | – | – | – | – | – | – | – | – | – | A6: inhibition of radioligand binding ([1]; [125I]-S36057, human MCH1 membranes, 10 µM): − (“−” indicates less than 50% inhibition at 10 μM); A2: inhibition of radioligand binding (Human κ-Opioid (KOP); [3H]-Diprenorphine, human KOP membranes): − (“−” indicates less than 50% inhibition at 10 μM); A10: inhibition of radioligand binding (Human opioid (ORL1); [125I]-Nociceptin, human ORL1 membranes): − (“−” indicates less than 50% inhibition at 10 μM); A7: inhibition of radioligand binding (Human μ-opioid (MOP); [3H]-Naloxone, human MOP membranes): − (“−” indicates less than 50% inhibition at 10 μM); A11: inhibition of radioligand binding (Mouse urotensin (mUR2); [125I]-Urotensin II, mouse mUR2 membranes): − (“−” indicates less than 50% inhibition at 10 μM); A4: inhibition of radioligand binding (Human Melanocortin (MC4); [125I]-NDP-αMSH, human MC4 membranes, 10 µM): − (“−” indicates less than 50% inhibition at 10 μM); A9: inhibition of radioligand binding ([2]; [125I]-PYY, human NPY-Y1 membranes): − (“−” indicates less than 50% inhibition at 10 μM); A3: inhibition of radioligand binding (Human Melanocortin (MC3); [125I]-NDP-αMSH, human MC3 membranes, 10 µM): − (“−” indicates less than 50% inhibition at 10 μM); A8: inhibition of radioligand binding (Human neurokinin (NK1); [125I]-Substance P, human NK1 membranes): + (“+” indicates greater than 50% inhibition at 10 μM); A1: inhibition of radioligand binding (Human δ-opioid (DOP); [3H]-Bremazocine, human DOP membranes): − (“−” indicates less than 50% inhibition at 10 μM); A5: inhibition of radioligand binding (Human melanocortin (MC5); [125I]-NDP-αMSH, human MC5 membranes): + (“+” indicates greater than 50% inhibition at 10 μM)
N=C(N)NCC(=O)N[C@H]1C(OCc2ccc(Cl)cc2)O[C@H](COCc2ccc(Cl)cc2)[C@@H](O)[C@@H]1OCc1ccc(-c2ccccc2)cc1 (stereo partly shown) [compound 521] | + (“+” indicates greater than 50% inhibition at 10 μM) | − (“−” indicates less than 50% inhibition at 10 μM) | – | − (“−” indicates less than 50% inhibition at 10 μM) | + (“+” indicates greater than 50% inhibition at 10 μM) | − (“−” indicates less than 50% inhibition at 10 μM) | + (“+” indicates greater than 50% inhibition at 10 μM) | + (“+” indicates greater than 50% inhibition at 10 μM) | + (“+” indicates greater than 50% inhibition at 10 μM) | − (“−” indicates less than 50% inhibition at 10 μM) | − (“−” indicates less than 50% inhibition at 10 μM) | A10: inhibition of radioligand binding, human opioid (ORL1) (Human opioid (ORL1); [125I]-Nociceptin, 10 µM): + (“+” indicates greater than 50% inhibition at 10 μM)
COC[C@H]1OC(OCc2ccccc2)[C@H](NC(=O)CCNC(=N)N)[C@@H](OCc2ccc(-c3ccccc3)cc2)[C@@H]1O (stereo partly shown) [compound 24] | – | – | – | – | – | – | – | – | – | – | – | A6 radioligand binding inhibition ([1]; human MCH1 membranes): + (“+” indicates greater than 50% inhibition at 10 μM); A2 radioligand binding inhibition (Human κ-Opioid (KOP); human κ-opioid (KOP) membranes): − (“−” indicates less than 50% inhibition at 10 μM); A10 radioligand binding inhibition (Human opioid (ORL1); human ORL1 membranes): − (“−” indicates less than 50% inhibition at 10 μM); A7 radioligand binding inhibition (Human μ-opioid (MOP); human μ-opioid (MOP) membranes): − (“−” indicates less than 50% inhibition at 10 μM); A11 radioligand binding inhibition (Mouse urotensin (mUR2); mouse urotensin mUR2 membranes): − (“−” indicates less than 50% inhibition at 10 μM); A4 radioligand binding inhibition (Human Melanocortin (MC4); human melanocortin MC4 membranes): − (“−” indicates less than 50% inhibition at 10 μM); A9 radioligand binding inhibition ([2]; human NPY-Y1 membranes): − (“−” indicates less than 50% inhibition at 10 μM); A3 radioligand binding inhibition (Human Melanocortin (MC3); human melanocortin MC3 membranes): − (“−” indicates less than 50% inhibition at 10 μM); A8 radioligand binding inhibition (Human neurokinin (NK1); human neurokinin NK1 membranes): + (“+” indicates greater than 50% inhibition at 10 μM); A1 radioligand binding inhibition (Human δ-opioid (DOP); human δ-opioid (DOP) membranes): − (“−” indicates less than 50% inhibition at 10 μM); A5 radioligand binding inhibition (Human melanocortin (MC5); human melanocortin MC5 membranes): + (“+” indicates greater than 50% inhibition at 10 μM)
CSC1OC(COCc2ccc(Cl)cc2)C(O)C(OCc2ccc3ccccc3c2)C1NC(=O)CCCNC(=N)N (stereo not shown) [compound 311] | − (“−” indicates less than 50% inhibition at 10 μM) | − (“−” indicates less than 50% inhibition at 10 μM) | − (“−” indicates less than 50% inhibition at 10 μM) | − (“−” indicates less than 50% inhibition at 10 μM) | + (“+” indicates greater than 50% inhibition at 10 μM) | − (“−” indicates less than 50% inhibition at 10 μM) | − (“−” indicates less than 50% inhibition at 10 μM) | + (“+” indicates greater than 50% inhibition at 10 μM) | + (“+” indicates greater than 50% inhibition at 10 μM) | − (“−” indicates less than 50% inhibition at 10 μM) | − (“−” indicates less than 50% inhibition at 10 μM) | –
